# Laboratory results reported in ChEMBL document CHEMBL1201862, “PubChem BioAssay data set” (2004).
#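 96-well plates; 48 h exposure; 5 concentrations. Endpoints by linear interpolation between flanking doses. Not reached: highest tested concentration assigned. The concentration for 50% growth inhibition is given as GI50.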 The source made the active and inactive calls. Cut-off read from the data, not from the text of the source: active = GI50 up to about 1.1 µM and inactive = higher.
# Tests used:
# Test in all cases: NCI tumour cell line growth inhibition, 48 h
# [1] = system: DMS-273
# [2] = system: SK-MEL-28
# [3] = system: SW-620
# [4] = system: U-251
# [5] = system: SF-295
# [6] = system: MOLT-4
# [7] = system: IGROV-1
# [8] = system: UACC-62
# [9] = system: SF-539
# [10] = system: OVCAR-4
# [11] = system: SNB-78
# [12] = system: OVCAR-8
# [13] = system: HCC 2998
# [14] = system: LOX IMVI
# [15] = system: ACHN
# [16] = system: K562
# [17] = system: NCI-H23
# [18] = system: SN12C
# [19] = system: UO-31
# [20] = system: COLO 205
# [21] = system: LXFL 529
# [22] = system: SK-MEL-5
# [23] = system: TK-10
# [24] = system: SF-268
# [25] = system: HOP-92
# [26] = system: RXF 393
# [27] = system: A549
# [28] = system: EKVX
# [29] = system: NCI-H226
# [30] = system: 786-0
# [31] = system: KM12
# [32] = system: SNB-75
# [33] = system: SK-MEL-2
# [34] = system: CCRF-CEM
# [35] = system: Malme-3M
# [36] = system: SK-OV-3
# [37] = system: NCI-H460
# [38] = system: HT-29
# [39] = system: M19-MEL
# [40] = system: SNB-19
# [41] = system: OVCAR-3
# [42] = system: CAKI-1
# [43] = system: NCI-H522
# [44] = system: M14
# [45] = system: SR
# [46] = system: OVCAR-5
# [47] = system: DLD-1
# [48] = system: HCT-116
# [49] = system: RPMI-8226
# [50] = system: MDA-MB-435
# [51] = system: T47D
# [52] = system: BT-549
# [53] = system: HL-60
# [54] = system: MDA-MB-231
# [55] = system: NCI/ADR-RES
# [56] = system: A498
# [57] = system: MCF7
# [58] = system: HOP-62
# [59] = system: MDA-N
# [60] = system: HCT-15
# [61] = system: Hs-578T
# [62] = system: PC-3
# [63] = system: UACC-257
# [64] = system: DU-145
structure (smiles),measurement,setting,value
CNC(=S)N/N=C1\CC(c2ccccc2)Oc2ccccc21 (configuration not stated),GI50,[1],> 100 µM (inactive)
same,GI50,[2],> 100 µM (inactive)
same,GI50,[3],> 100 µM (inactive)
same,GI50,[4],> 100 µM (inactive)
same,GI50,[5],> 100 µM (inactive)
same,GI50,[6],> 100 µM (inactive)
same,GI50,[7],> 100 µM (inactive)
same,GI50,[8],> 100 µM (inactive)
same,GI50,[9],> 100 µM (inactive)
same,GI50,[10],18.6 µM (inactive)
same,GI50,[11],> 100 µM (inactive)
same,GI50,[12],> 100 µM (inactive)
same,GI50,[13],> 100 µM (inactive)
same,GI50,[14],> 100 µM (inactive)
same,GI50,[15],> 100 µM (inactive)
same,GI50,[16],> 100 µM (inactive)
same,GI50,[17],> 100 µM (inactive)
same,GI50,[18],> 100 µM (inactive)
same,GI50,[19],8.11 µM (inactive)
same,GI50,[20],> 100 µM (inactive)
same,GI50,[21],> 100 µM (inactive)
same,GI50,[22],88.5 µM (inactive)
same,GI50,[23],> 100 µM (inactive)
same,GI50,[24],> 100 µM (inactive)
same,GI50,[25],18.3 µM (inactive)
same,GI50,[26],> 100 µM (inactive)
same,GI50,[27],> 100 µM (inactive)
same,GI50,[28],> 100 µM (inactive)
same,GI50,[29],43.7 µM (inactive)
same,GI50,[30],> 100 µM (inactive)
same,GI50,[31],> 100 µM (inactive)
same,GI50,[32],> 100 µM (inactive)
same,GI50,[33],> 100 µM (inactive)
same,GI50,[34],> 100 µM (inactive)
same,GI50,[35],> 100 µM (inactive)
same,GI50,[36],> 100 µM (inactive)
same,GI50,[37],> 100 µM (inactive)
same,GI50,[38],> 100 µM (inactive)
same,GI50,[39],91.8 µM (inactive)
same,GI50,[40],> 100 µM (inactive)
same,GI50,[41],34.8 µM (inactive)
same,GI50,[42],> 100 µM (inactive)
same,GI50,[43],> 100 µM (inactive)
same,GI50,[44],> 100 µM (inactive)
same,GI50,[45],> 100 µM (inactive)
same,GI50,[46],> 100 µM (inactive)
same,GI50,[47],> 100 µM (inactive)
same,GI50,[48],> 100 µM (inactive)
OCC1OC(c2scc3c(=S)[nH]cnc23)C(O)C1O (configuration not stated),GI50,[2],74 µM (inactive)
same,GI50,[49],9.31 µM (inactive)
same,GI50,[3],6.76 µM (inactive)
same,GI50,[4],> 93.3 µM (inactive)
same,GI50,[50],20.4 µM (inactive)
same,GI50,[5],29 µM (inactive)
same,GI50,[6],4.25 µM (inactive)
same,GI50,[7],9.62 µM (inactive)
same,GI50,[8],8.65 µM (inactive)
same,GI50,[9],8.81 µM (inactive)
same,GI50,[10],4.01 µM (inactive)
same,GI50,[51],0.82 µM (active)
same,GI50,[52],27.5 µM (inactive)
same,GI50,[12],1.24 µM (inactive)
same,GI50,[13],7.03 µM (inactive)
same,GI50,[14],2.86 µM (inactive)
same,GI50,[15],4.84 µM (inactive)
same,GI50,[53],3.63 µM (inactive)
same,GI50,[54],4.61 µM (inactive)
same,GI50,[16],13.6 µM (inactive)
same,GI50,[17],21 µM (inactive)
same,GI50,[55],3.05 µM (inactive)
same,GI50,[18],6.15 µM (inactive)
same,GI50,[19],6.08 µM (inactive)
same,GI50,[20],11.2 µM (inactive)
same,GI50,[22],22.7 µM (inactive)
same,GI50,[23],5.45 µM (inactive)
same,GI50,[24],21.2 µM (inactive)
same,GI50,[25],0.796 µM (active)
same,GI50,[56],6.84 µM (inactive)
same,GI50,[57],2.8 µM (inactive)
same,GI50,[26],11.9 µM (inactive)
same,GI50,[27],31.7 µM (inactive)
same,GI50,[58],10.7 µM (inactive)
same,GI50,[28],76.2 µM (inactive)
same,GI50,[29],16 µM (inactive)
same,GI50,[59],15 µM (inactive)
same,GI50,[60],4.1 µM
same,GI50,[30],8.99 µM (inactive)
same,GI50,[31],24.5 µM (inactive)
same,GI50,[32],2.32 µM (inactive)
same,GI50,[33],13.4 µM (inactive)
same,GI50,[34],20.8 µM (inactive)
same,GI50,[35],15.8 µM (inactive)
same,GI50,[61],1.77 µM (inactive)
same,GI50,[36],2.54 µM (inactive)
same,GI50,[37],8.22 µM (inactive)
same,GI50,[38],5.12 µM (inactive)
same,GI50,[62],2.53 µM (inactive)
same,GI50,[40],72.3 µM (inactive)
same,GI50,[41],2.19 µM (inactive)
same,GI50,[42],6.59 µM (inactive)
same,GI50,[43],15.8 µM (inactive)
same,GI50,[44],6.53 µM (inactive)
same,GI50,[63],42.4 µM (inactive)
same,GI50,[45],29.1 µM (inactive)
same,GI50,[46],26.1 µM (inactive)
same,GI50,[64],0.859 µM (active)
same,GI50,[48],5.3 µM (inactive)
